Data: publication PMC9007462 (Journal of Medicinal Chemistry, 2022)

Tests used:
Assay type in all cases: biochemical
[1] = target: T1, Human ALDH1A1 (Homo sapiens, UniProt P00352); experiment: DEAB analogues as substrates of ALDH1A1; settings: 10 μM compound as substrate, relative to activity with 10 μM hexanal (Figure S2)
T1 construct: made in house
T1 sequence (P00352 1-501): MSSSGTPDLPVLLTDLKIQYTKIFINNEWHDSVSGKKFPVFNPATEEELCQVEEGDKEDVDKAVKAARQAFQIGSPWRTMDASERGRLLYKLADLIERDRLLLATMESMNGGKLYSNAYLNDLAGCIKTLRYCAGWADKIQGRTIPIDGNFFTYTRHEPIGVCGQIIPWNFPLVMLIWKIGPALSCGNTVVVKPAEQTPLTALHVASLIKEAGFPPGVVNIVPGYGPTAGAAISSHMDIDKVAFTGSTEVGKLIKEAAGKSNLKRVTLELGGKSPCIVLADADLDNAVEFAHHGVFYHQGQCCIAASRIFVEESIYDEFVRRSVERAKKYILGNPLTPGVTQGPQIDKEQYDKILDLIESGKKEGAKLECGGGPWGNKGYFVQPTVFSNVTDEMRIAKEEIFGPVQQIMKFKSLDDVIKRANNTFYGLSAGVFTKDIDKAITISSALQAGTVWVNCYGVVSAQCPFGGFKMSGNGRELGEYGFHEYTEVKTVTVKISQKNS
Description: (§1) Human ALDH1A1, ALDH1A3, and ALDH3A1 were cloned and recombinantly expressed from the pET-30 Xa/LIC vector. Protein purification was achieved by affinity chromatography on a nickel-charged chelating Sepharose Fast Flow 5-mL column (His Trap column, Cytiva), which specifically binds the protein due to its N-terminal (His)6 tag, using an ÄKTA FPLC system (Cytiva), as previously described.[55] Enzymes including the His tag were stored at −80 °C in 20 mM Tris/HCl and 0.5 M NaCl, pH 8.0, until use. Reaction buffers were as follows: ALDH1A1 was assayed in 50 mM HEPES, 0.5 mM EDTA, and 0.5 mM DTT, pH 8.0; ALDH1A3 was assayed in 50 mM HEPES, 30 mM MgCl2, and 5 mM DTT, pH 8.0; and ALDH3A1 was assayed in 50 mM Tris–HCl and 5 mM DTT, pH 8.0. Activity under standard conditions was measured fluorimetrically at 25 °C using a Cary Eclipse (Varian) fluorimeter to follow the purification procedure and to check the enzyme concentration before each kinetic experiment. The fluorescence of NADH was characterized at 460 nm with excitation at 340 nm, and 5 μM NAD(P)H was added as an internal standard to obtain the absolute reaction rates.[55] Standard activity was measured at saturating concentrations of substrate using 30 μM hexanal (ALDH1A1), 250 μM hexanal (ALDH1A3), or 250 μM 4-NBA (ALDH3A1). NAD^+ was 500 μM for ALDH1A1 and ALDH1A3, and NADP^+ was 1 mM for ALDH3A1.
According to their structure with a carbonyl group, compounds were tested for their substrate properties against ALDH1A1, ALDH1A3, and ALDH3A1. […] Results are expressed as the percentage of activity at 10 μM versus the activity at 10 μM of their standard substrate (hexanal or 4-NBA). Values are expressed as the mean ± SE.

[2] = target: T1, Human ALDH1A1; experiment: ALDH1A1 inhibition, IC50 determination
Description: as §1
In order to determine the IC50 values, reaction rates were determined at various concentrations of inhibitor at a fixed concentration of substrate. As substrates for ALDH1A1, ALDH1A3, and ALDH3A1, 5 μM hexanal, 6 μM hexanal, and 31 μM 4-NBA, respectively, were used. The IC50 values were calculated by nonlinear fitting of the obtained data to a sigmoidal plot using GraFit 5.0 (Erithacus software), with the following 4-parameter equation [drawing 2] , where y is the specific activity, x is the inhibitor concentration, background is the minimum y value, range is the fitted uninhibited value minus the background, and s is the slope factor. Values are expressed as the mean ± SE.

[3] = target: T1, Human ALDH1A1; experiment: Inhibition screening, single point at 10 μM, ALDH1A1; settings: 10 μM compound; 5 μM hexanal (Figure S1)
Description: as §1
All compounds tested were dissolved in DMSO and assayed at a final concentration of 1% (v/v) DMSO. […] For the initial screening, the enzymatic activity was measured in 96-well plates (final volume of 200 μL) in a Victor 3 Multilabel Plate Reader (Perkin Elmer), by monitoring the fluorescence of the NAD(P)H produced during the reaction (excitation at 340 nm and emission at 460 nm). Alternatively, the enzymatic activity was measured in a Varian Cary 400 UV–vis spectrophotometer, by monitoring the increase in the absorbance of NAD(P)H at 340 nm (ε = 6.22 mM^–1·cm^–1) or in a Cary Eclipse Varian fluorimeter, as described above. […] For ALDH1A1, 5 μM hexanal (Sigma) was used. For ALDH1A3, 10 and 250 μM hexanal (Sigma) were used. For ALDH3A1, 4-NBA (Sigma) was used at 31 and 250 μM. All substrates were prepared in the corresponding assay buffer at a concentration of 2 mM and further diluted to reach the final concentrations required per experiment. The concentration of the enzyme was kept from 50- to 100-fold lower than that of the substrate for all enzymatic assays.

| ALDH1A1 substrate activity [1] | SMILES | IC50 ([2]; 5 μM hexanal as substrate, mean ± SE) | fold less effective than DEAB in inhibiting ALDH1A1 ([2]; ratio of IC50 values vs DEAB) | remaining ALDH1A1 activity [3] |
| --- | --- | --- | --- | --- |
| 17% | CCCN(CCC)c1ccc(C=O)cc1[N+](=O)[O-] [Compound 18, 4-(Dipropylamino)-3-Nitrobenzaldehyde] | – | – | – |
| – | CCCN(CCC)c1ccc(C=O)cc1Br [Compound 14, 3-Bromo-4-(dipropylamino)benzaldehyde] | 7.08 ± 0.7 µM | approximately 15 fold | 45% |
